Experimental data reported in ChEMBL document CHEMBL1201862, “PubChem BioAssay data set” (2004).
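Grown in 96-well plates, cells were treated for 48 hours with each compound at five concentrations. Insufficient inhibition: endpoint recorded as highest concentration tested. GI50 is the concentration that inhibits growth by half.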 Activity calls are given as the source filed them. Cut-off read from the data, not from the text of the source: active = GI50 up to about 1.1 µM and inactive = higher.

Legend:
Assay in all cases: inhibition of tumour cell growth, NCI panel, 48 h
DLD-1 = tested on: DLD-1
DMS-114 = tested on: DMS-114
HOP-18 = tested on: HOP-18
KM-20L2 = tested on: KM-20L2
LXFL 529 = tested on: LXFL 529
M19-MEL = tested on: M19-MEL
RXF 631 = tested on: RXF 631
SNB-78 = tested on: SNB-78
DMS-273 = tested on: DMS-273

Structure (SMILES)	GI50 (DLD-1)	GI50 (DMS-114)	GI50 (HOP-18)	GI50 (KM-20L2)	GI50 (LXFL 529)	GI50 (M19-MEL)	GI50 (RXF 631)	GI50 (SNB-78)	GI50 (DMS-273)
COc1ccc(-c2cc(O)c3ccc(F)cc3n2)cc1	> 100 µM (inactive)	> 100 µM (inactive)	> 100 µM (inactive)	> 100 µM (inactive)	> 100 µM (inactive)	> 100 µM (inactive)	> 100 µM (inactive)	> 100 µM (inactive)	
CCCCCC(O)(CCCCC)CCCCCCCCC1=C(O)C(=O)c2ccc(=O)[nH]c2C1=O	5.37 µM (inactive)	4.37 µM (inactive)		13.1 µM (inactive)	3.94 µM (inactive)	3.88 µM (inactive)	10.3 µM (inactive)	21.2 µM (inactive)	3.59 µM (inactive)
Cc1cc(NCCCCCCCCNc2cc(C)nc3cc(N(C)C)ccc23)c2ccc(N(C)C)cc2n1		1.39 µM (inactive)		4.29 µM (inactive)	1.69 µM (inactive)	2.78 µM (inactive)		5.47 µM (inactive)	2.74 µM (inactive)
CCCCCCCCCCCCCCCCCCCCCC(=O)Nc1ccn(C2OC(CO)C(O)C2O)c(=O)n1 (stereo not given)	> 100 µM (inactive)	1.04 µM (active)	> 100 µM (inactive)	> 100 µM (inactive)	> 100 µM (inactive)	8.17 µM (inactive)		> 100 µM (inactive)	35.6 µM (inactive)
NC(=S)N1N=C2c3ccccc3CCC[C@H]2[C@@H]1c1ccccc1	3.42 µM (inactive)	3.98 µM (inactive)		2.01 µM (inactive)	3.89 µM (inactive)	2.81 µM (inactive)		5.77 µM (inactive)	0.721 µM (active)
O=C(Cc1nc2c3c(ccc2nc1O)C(=O)c1ccccc1C3=O)C(=O)Nc1ccccc1[N+](=O)[O-]				19.6 µM (inactive)	4.24 µM (inactive)	22.2 µM (inactive)		4.22 µM (inactive)	
NNC(=O)C(=O)N/N=C1\CCC(=O)CC1C(=O)CCC(=O)Nc1ccc(Cl)cc1 (stereo not given)	> 100 µM (inactive)		95.5 µM (inactive)	> 100 µM (inactive)	> 100 µM (inactive)	> 100 µM (inactive)		> 100 µM (inactive)	> 100 µM (inactive)
Clc1cccc2c1OCC1C(c3ccccc3)=NN(c3ccccc3)C21 (stereo not given)	> 100 µM (inactive)	47.6 µM (inactive)	24 µM (inactive)	> 100 µM (inactive)	67.1 µM (inactive)	> 100 µM (inactive)	> 100 µM (inactive)	72.9 µM (inactive)	45.8 µM (inactive)
O=C(c1ccncc1)n1nc(-c2ccccc2)c(/N=N/c2ccccc2[N+](=O)[O-])c1-c1ccccc1	49.9 µM (inactive)	21 µM (inactive)			74.6 µM (inactive)	> 100 µM (inactive)	38.5 µM (inactive)	65.3 µM (inactive)	> 100 µM (inactive)
C/C(CC(=O)Nc1cc(C)ccc1C)=N\NC(=O)c1ccncc1	> 100 µM (inactive)			> 100 µM (inactive)	> 100 µM (inactive)	> 100 µM (inactive)	> 100 µM (inactive)	> 100 µM (inactive)	
C[N+](C)(C)CC(CC(=O)[O-])C1CC1 (stereo not given)		> 100 µM (inactive)	> 100 µM (inactive)	> 100 µM (inactive)	> 100 µM (inactive)	> 100 µM (inactive)	> 100 µM (inactive)		> 100 µM (inactive)
S=C(Nc1ccccc1)Nc1[nH]c(=S)sc1-c1nc2ccccc2[nH]1	76.9 µM (inactive)		> 100 µM (inactive)		29.6 µM (inactive)	> 100 µM (inactive)	65.6 µM (inactive)	36.1 µM (inactive)	37.8 µM (inactive)
Cc1ccc(NC(=O)C(=O)CC(=O)C2CCOC2=O)c(C)c1 (stereo not given)	> 100 µM (inactive)	> 100 µM (inactive)	> 100 µM (inactive)	> 100 µM (inactive)	> 100 µM (inactive)		> 100 µM (inactive)	> 100 µM (inactive)	> 100 µM (inactive)
COc1cc(C(O)C(=O)c2cnc3cc([N+](=O)[O-])ccc3n2)ccc1O (stereo not given)	> 100 µM (inactive)	49.9 µM (inactive)		85.5 µM (inactive)	74.1 µM (inactive)	> 100 µM (inactive)	> 100 µM (inactive)		> 100 µM (inactive)
C=C1C2CC(OC(C)=O)C3(C)C(c4ccoc4)OC(=O)[C@@H](O)[C@]13OC1C[C@H](OC(C)=O)C(C)(C)[C@H](C(O)C(=O)OC)[C@]12C (stereo not given in full)	> 100 µM (inactive)	> 100 µM (inactive)	> 100 µM (inactive)	> 100 µM (inactive)	> 100 µM (inactive)	> 100 µM (inactive)		> 100 µM (inactive)	> 100 µM (inactive)
COc1cc(/C=C\c2ccc(Cl)cc2)cc(OC)c1OC	0.319 µM (active)	0.394 µM (active)	> 100 µM (inactive)	0.105 µM (active)	0.292 µM (active)	0.389 µM (active)	0.118 µM (active)	0.162 µM (active)	0.149 µM (active)
O=c1oc2c(O)c(O)cc3c(=O)oc4c(O)c(O)cc1c4c23 [ELLAGIC ACID]	> 10 µM (inactive)	33.4 µM (inactive)	> 10 µM (inactive)	94.4 µM (inactive)	37 µM (inactive)	> 10 µM (inactive)	> 10 µM (inactive)	> 10 µM (inactive)	> 10 µM (inactive)
